Measured values reported in patent publication EP4603105A1, “PHARMACEUTICAL COMPOSITION CONTAINING CYCLIC COMPOUND HAVING SELECTIVE KRAS INHIBITORY EFFECT AGAINST HRAS AND NRAS” (CHUGAI SEIYAKU KABUSHIKI KAISHA, priority 2022, dated 2024).
Where a SMILES comes first, the peptide text is derived from it. Bridges are numbered along the chain shown (N, C = ends). [ ]: non-standard residue; d: D form. The star is where a group is joined. hPhe(3-Cl-4-CF3) = N[C@@H](CCc1ccc(C(F)(F)F)c(Cl)c1)C(=O)O; NPrPhe(4-CF3) = CCCN[C@@H](Cc1ccc(C(F)(F)F)cc1)C(=O)O; NMeGly(cPent) = CN[C@H](C(=O)O)C1CCCC1; Gly(cPent) = N[C@H](C(=O)O)C1CCCC1; NMeD = CN[C@@H](CC(=O)O)C(=O)O; NMeL = CN[C@@H](CC(C)C)C(=O)O; Morpholide = C1CN(*)CCO1; Ac5c = NC1(C(=O)O)CCCC1; Aze = O=C(O)[C@@H]1CCN1; Sar = CNCC(=O)O

Assays:
[1] = target: GDP-bound NRAS wild-type protein (Homo sapiens, UniProt P01111); test: Binding to NRAS by surface plasmon resonance (SPR), KD and KD ratio to KRAS
Method in brief: (§1)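 GDP-loaded biotinylated Avi-tag RAS proteins (E. coli-expressed) captured on a Biotin CAPture chip at ~100–300 RU; single-cycle kinetics at 30°C, 100 µL/min, 75 s injections of rising compound concentrations. HBS pH 7.4 running buffer with 1 mM DTT, 10 mM MgCl2, 10 µM GDP, 4% DMSO. KD from 1:1 binding fit.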

[2] = system: human lung cancer strain NCI-H441; assay type: cell-based
Method in brief: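 Readout: […] after the ATP-based reagent. Compound: serial dilutions in dimethyl sulfoxide.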

[3] = target: GDP-bound KRAS wild-type protein (Homo sapiens, UniProt P01116); test: Binding to KRAS by surface plasmon resonance (SPR), dissociation constant KD
Method in brief: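 Captured GDP-RAS (~100–300 RU) was exposed to increasing compound concentrations, 75 s per step, in running buffer with 10 µM GDP, 10 mM MgCl2 and 4% DMSO at pH 7.4.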

HRAS wild-type protein = HRAS wild-type protein (Homo sapiens, UniProt P01112); test: Binding to HRAS by surface plasmon resonance (SPR), KD and KD ratio to KRAS
Method in brief: as §1

[4] = ratio of the KD value with respect to GDP-bound NRAS wild-type protein to the KD value with respect to KRAS
[5] = Single Cycle Kinetics, 1:1 binding model
[6] = ratio of the KD value with respect to HRAS wild-type protein to the KD value with respect to KRAS
[7] = ratio of KD for GDP-bound NRAS wild-type protein to KD for KRAS
[8] = ratio of KD for HRAS wild-type protein to KD for KRAS

Sequence of HRAS wild-type protein (P01112 whole entry): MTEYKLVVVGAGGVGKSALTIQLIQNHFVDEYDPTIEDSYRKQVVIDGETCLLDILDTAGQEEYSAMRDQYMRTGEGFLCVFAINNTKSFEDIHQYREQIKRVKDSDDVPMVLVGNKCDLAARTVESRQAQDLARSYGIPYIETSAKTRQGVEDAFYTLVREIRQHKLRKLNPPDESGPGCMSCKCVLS
Sequence of GDP-bound KRAS wild-type protein (P01116 1-188 isoform P01116-2): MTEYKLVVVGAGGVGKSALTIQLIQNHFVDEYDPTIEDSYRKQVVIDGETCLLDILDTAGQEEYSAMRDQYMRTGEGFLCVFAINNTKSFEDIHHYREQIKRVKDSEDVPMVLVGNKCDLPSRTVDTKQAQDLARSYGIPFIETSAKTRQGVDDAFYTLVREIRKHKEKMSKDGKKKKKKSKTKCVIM
Sequence of GDP-bound NRAS wild-type protein (P01111 whole entry): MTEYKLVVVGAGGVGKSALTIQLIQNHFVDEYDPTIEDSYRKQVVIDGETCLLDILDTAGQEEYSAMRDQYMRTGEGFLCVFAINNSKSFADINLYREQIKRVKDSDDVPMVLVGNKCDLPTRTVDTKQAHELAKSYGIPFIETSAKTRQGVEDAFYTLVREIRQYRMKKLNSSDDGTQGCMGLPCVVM

IC50 [2] | Kd [3, 5] | Kd ([3]; Single Cycle Kinetics) | Kd ([3]; 1:1 binding model) | Structure (SMILES) | NRAS /KRAS [1, 4] | HRAS /KRAS (HRAS wild-type protein; [6]) | NRAS /KRAS [1, 7] | HRAS /KRAS (HRAS wild-type protein; [8])
45 nM | 1.1 nM |  |  | CCO[C@@H]1C[C@H]2C(=O)NC3(CCC3)C(=O)N(C)[C@@H](C3CCCC3)C(=O)N(C)[C@H](C(=O)N3CCOCC3)CC(=O)N(C)[C@@H](CC(C)(C)C)C(=O)N[C@@H]([C@@H](C)CC)C(=O)N(C)CC(=O)N(C)[C@H]3CCCCCN(C3=O)[C@@H](Cc3ccc(C(F)(F)F)cc3)C(=O)N(C)CC(=O)N[C@@H](CCc3cc(F)c(C(F)(F)F)c(F)c3)C(=O)N2C1 [PP0684] | B (a compound having 3 or more and less than 10 is denoted as B) | B (a compound having 3 or more and less than 10 is denoted as B) |  | 
195 nM |  | 2 nM |  | CCCCO[C@H]1CCN2C(=O)[C@H](CCc3cc(F)c(C(F)(F)F)c(F)c3)NC(=O)CN(C)C(=O)[C@H](Cc3ccc(C(F)(F)F)cc3)N3CCCCC[C@@H](C3=O)N(C)C(=O)CN(C)C(=O)[C@H]([C@@H](C)CC)NC(=O)[C@H](CC(C)C)N(C)C(=O)C[C@@H](C(=O)N3CCOCC3)N(C)C(=O)[C@H](C3CCCC3)N(C)C(=O)C3(CCC3)NC(=O)[C@H]12 [PP1009] |  |  | B (a compound having 3 or more and less than 10 is denoted as B) | B (a compound having 3 or more and less than 10 is denoted as B)
15.2 nM | 0.13 nM |  |  | CCCOC[C@H]1C(=O)N[C@@H]([C@@H](C)CC)C(=O)N(C)CC(=O)N(C)[C@H]2C/C=C\CCN(C2=O)[C@@H](Cc2ccc(C(F)(F)F)cc2)C(=O)N(C)CC(=O)N[C@@H](CCc2cc(F)c(C(F)(F)F)c(F)c2)C(=O)N2C[C@@H](C)C[C@H]2C(=O)NC2(CCC2)C(=O)N(C)[C@@H](C2CCCC2)C(=O)N(C)[C@H](C(=O)N(C)CCC)CC(=O)N1C [PP2008] | A (a compound having 10 or more and less than 20 is denoted as A) | A (a compound having 10 or more and less than 20 is denoted as A) |  | 
23 nM |  |  | 0.46 nM | CCC(CC)[C@H]1C(=O)N(C)[C@H](C(=O)N(C)C)CC(=O)N(C)[C@@H](COC)C(=O)N[C@@H]([C@@H](C)CC)C(=O)N(C)CC(=O)N(C)[C@H]2C/C=C\CCN(C2=O)[C@@H](Cc2ccc(C)cc2)C(=O)N(C)CC(=O)N[C@@H](CCc2ccc(C(F)(F)F)c(OC)c2)C(=O)N2CCCCC[C@H]2C(=O)NC2(CC(C)(C)C2)C(=O)N1C [PP2970] |  |  | A (a compound having 10 or more and less than 20 is denoted as A) | A (a compound having 10 or more and less than 20 is denoted as A)
19.4 nM |  |  | 0.33 nM | CCO[C@@H]1C[C@H]2C(=O)NC3(CC(C)(C)C3)C(=O)N(C)[C@@H](C3CCCC3)C(=O)N(C)[C@H](C(=O)N(C)C)CC(=O)N(C)[C@@H]([C@@H](C)OC)C(=O)N[C@@H]([C@@H](C)CC)C(=O)N(C3CC3)CC(=O)N(C)[C@H]3C/C=C\CCN(C3=O)[C@@H](Cc3ccc(C)cc3)C(=O)N(C)CC(=O)N[C@@H](CCc3cc(F)c(C(F)(F)F)c(F)c3)C(=O)N2C1 [PP3211] |  |  | A (a compound having 10 or more and less than 20 is denoted as A) | A (a compound having 10 or more and less than 20 is denoted as A)
10.5 nM | 0.17 nM |  |  | CC[C@H](C)[C@@H]1NC(=O)[C@H](CC(C)C)N(C)C(=O)C[C@@H](C(=O)N(C)C)N(C)C(=O)[C@H](C2CCCC2)N(C)C(=O)C2(CCCC2)NC(=O)[C@@H]2C[C@@H](C)CN2C(=O)[C@H](CCc2cc(F)c(C(F)(F)F)c(F)c2)NC(=O)CN(C)C(=O)[C@H](Cc2ccc(C)cc2)N2CC/C=C\C[C@@H](C2=O)N(C)C(=O)CN(C)C1=O [PP2189] | A (a compound having 10 or more and less than 20 is denoted as A) | A (a compound having 10 or more and less than 20 is denoted as A) |  | 
23.4 nM |  |  | 0.44 nM | CCO[C@@H]1C[C@H]2C(=O)NC3(CCC3)C(=O)N(C)[C@@H](C3CCCC3)C(=O)N(C)[C@H](C(=O)N(C)CC)CC(=O)N(C)[C@@H](CC3CCC3)C(=O)N[C@@H]([C@@H](C)CC)C(=O)N(C)CC(=O)N(C)[C@H]3C/C=C\CCN(C3=O)[C@@H](Cc3ccc(C(F)(F)F)cc3)C(=O)N(C)CC(=O)N[C@@H](CCc3ccc(Cl)c(Cl)c3)C(=O)N2C1 [PP2824] |  |  | A (a compound having 10 or more and less than 20 is denoted as A) | A (a compound having 10 or more and less than 20 is denoted as A)
142 nM |  |  | 1.2 nM | CCCN1C(=O)CN(C)C(=O)[C@@H]2CCN2C(=O)[C@H](C2CCCC2)NC(=O)[C@H](CC(C)C)N(C)C(=O)C[C@@H](C(=O)N2CCOCC2)N(C)C(=O)[C@H](C2CCCC2)N(C)C(=O)C2(CCCC2)NC(=O)[C@@H]2CCCN2C(=O)[C@H](CCc2ccc(C(F)(F)F)c(Cl)c2)NC(=O)CN(C)C(=O)[C@@H]1Cc1ccc(C(F)(F)F)cc1 [PP0306] ([NMeL][Gly(cPent)][Aze][Sar][NPrPhe(4-CF3)][Sar][hPhe(3-Cl-4-CF3)]P[Ac5c][NMeGly(cPent)][NMeD]-Morpholide; lactam N-11) |  |  | B (a compound having 3 or more and less than 10 is denoted as B) | B (a compound having 3 or more and less than 10 is denoted as B)
896 nM |  | 0.86 nM |  | CC[C@H](C)[C@@H]1NC(=O)[C@H](CC(C)C)N(C)C(=O)C[C@@H](C(=O)N2CCOCC2)N(C)C(=O)[C@H](C2CCCC2)N(C)C(=O)C2(CCC2)NC(=O)[C@@H]2[C@H](O)CCN2C(=O)[C@H](CCc2cc(F)c(C(F)(F)F)c(F)c2)NC(=O)CN(C)C(=O)[C@H](Cc2ccc(C(F)(F)F)cc2)N2CCCCC[C@@H](C2=O)N(C)C(=O)CN(C)C1=O [PP0873] |  |  | A (a compound having 10 or more and less than 20 is denoted as A) | B (a compound having 3 or more and less than 10 is denoted as B)
296 nM |  |  | 1.8 nM | CCO[C@@H]1C[C@H]2C(=O)NC3(CC(C)(C)C3)C(=O)N(C)[C@@H](C3CCCC3)C(=O)N(C)[C@H](C(=O)N(C)CC)CC(=O)N(C)[C@@H]([C@H](C)OC)C(=O)N[C@@H]([C@@H](C)CC)C(=O)N3CCC[C@H]3C(=O)N(C)[C@H]3C/C=C\CCN(C3=O)[C@@H](Cc3ccc(C)cc3)C(=O)N(C)CC(=O)N[C@@H](CCc3cc(F)c(C(F)(F)F)c(F)c3)C(=O)N2C1 [PP3163] |  |  | A (a compound having 10 or more and less than 20 is denoted as A) | A (a compound having 10 or more and less than 20 is denoted as A)
76.6 nM |  |  | 0.87 nM | CCO[C@@H]1C[C@H]2C(=O)NC3(CC(C)(C)C3)C(=O)N(C)[C@@H](C3CCCC3)C(=O)N(C)[C@H](C(=O)N(C)CC)CC(=O)N(C)[C@@H]([C@@H](C)OC)C(=O)N[C@@H]([C@@H](C)CC)C(=O)N(C3CC3)CC(=O)N(C)[C@H]3C/C=C\CCN(C3=O)[C@@H](Cc3ccc(C)cc3)C(=O)N(C)CC(=O)N[C@@H](CCc3ccc(C(F)(F)F)c(OC)c3)C(=O)N2C1 [PP3182] |  |  | A (a compound having 10 or more and less than 20 is denoted as A) | A (a compound having 10 or more and less than 20 is denoted as A)
33.9 nM | 32 nM |  |  | CCC[C@H]1C(=O)N[C@@H]([C@@H](C)CC)C(=O)N(C2CC2)CC(=O)N(C)[C@H]2C/C=C\CCN(C2=O)[C@@H](CC2CCCCC2)C(=O)N(C)CC(=O)N[C@@H](CCc2ccc(C(F)(F)F)c(OC)c2)C(=O)N2C[C@H](OCC)C[C@H]2C(=O)N(C)C2(CCC2)C(=O)N(C)[C@@H](C(CC)CC)C(=O)N(C)[C@H](C(=O)N(C)C)CC(=O)N1C [PP2337] | A (a compound having 10 or more and less than 20 is denoted as A) | A (a compound having 10 or more and less than 20 is denoted as A) |  | 
